Test results reported in patent publication US12187717B2, “Compound and use thereof in treating autoimmune diseases” (PARENCHYMA BIOTECH INC., priority 2022, dated 2025).
Where two headings read alike, the source gives them in different places.

Assays:
[1] = tested on: DSS-induced inflammatory bowel disease; assay: DSS-induced inflammatory bowel disease model: colon mRNA expression (real-time PCR); assay type: in vivo, C57BL/6 mice
Excerpt: On the 15th day of the experiment, the colon of the mouse was excised to prepare an mRNA sample. In order to extract mRNA, the colon tissue was ground with a homogenizer to acquire a homogeneous suspension. From the homogeneous suspension, mRNA was extracted by a phenol-chloroform sedimentation method using an easy-spin™ (DNA free) total RNA extraction kit (Intron biotechnology, Cat No. 17221). […] Herein, one (1) fold was set using the normal mouse colon as a control.
The real-time polymerase chain reaction was implemented under the conditions of 45 cycles at an annealing temperature of 58° C. and the following primer sequences were used.
The therapeutic effects of Compound 6 and Comparative Example 1 on inflammatory bowel disease were compared. Inflammatory bowel disease was induced in C57BL/6 mice in the same manner as in Example 4, and after oral administration of 10 mg/kg of Compound 6 and Comparative Example 1 to mice, the expression levels of IL-6 and S100a9 mRNA were confirmed in colon tissues.

[2] = tested on: colitis-associated colorectal cancer (CA-CRC); assay: AOM/DSS colorectal cancer model, therapeutic administration; assay type: in vivo, C57BL/6 mice; details: 10 mg/kg oral, 50th to 63rd days (treatment)
Experimental: AOM (Sigma Aldrich, Cat No. A5486) was diluted with physiological saline so as to be a concentration of 10 mg/kg, and then administered intraperitoneally to C57BL/6 mice (8 weeks old, female, 18±2 g) by […] for a total of 3 times at an interval of 7 days (Experiment day 0, 7, 14th). On the 7th day of the experiment, a 1.5% DSS solution prepared by dissolving 1.5% DSS in sterile distilled water was given for drinking to the mice for 7 days. Further, the 1.5% DSS solution was changed at an interval of 2 days. Sterile distilled water was provided for drinking from the 8th day of the experiment. In the compound 6 administration group according to an embodiment of the present invention, 10 mg/kg of Compound 6 per mouse was completely dissolved in an ethanol-Cremophor EL mixture corresponding to 7.5% (v/v) of the administered dose, and then, was diluted in phosphate buffered saline to prepare the final ethanol:Cremophor EL:phosphate buffered saline (0.375:0.375:9.25, v/v/v), followed by oral administration with 200 μl of the prepared solution. In order to confirm the preventive effect, Compound 6 was administered for a total of 14 times from the 7th to the 20th days of the experiment. The effects of Compound 6 according to an embodiment of the present invention on treating colon cancer was confirmed. From the 50th to the 63rd days of the experiment, DSS was administered on the 7th and 14th days after AOM administration to the mice to induce colon cancer, and Compound 6 was administered 14 times from the 50th to the 63rd days. […] That is, it was confirmed that Compound 6 was effective in treating colon cancer (FIGS. 13 and 14). Therefore, it was confirmed that Compound 6 can be used as an effective preventive and therapeutic agent for colon cancer.

[3] = Pharmacokinetic parameters after oral or intravenous administration; assay type: in vivo; details: rats; for bioavailability: read-out: Bioavailability (F %); for increase of AUClast compared to Comparative Example 1 / increase of Cmax compared to Comparative Example 1: oral
Experimental: For rats, an oral administration group was fasted for 16 hours, and an intravenous administration group was subjected to intravenous administration with 10 mL/kg of solution prepared by completely dissolving Compound 6 in an ethanol-Cremophor EL mixture corresponding to 7.5% (v/v) of the administered dose, and then diluting in phosphate buffered saline so as to be the final ethanol:Cremophor EL:phosphate buffered saline (0.375:0.375:9.25, v/v/v), without fasting, at the dose concentration listed in Table 3. The oral administration group was supplied with food about 4 hours after administration. Blood collection was performed on the intravenous administration group after 0.083, 0.5, 1, 2, 4, 8, 24 hours from the administration and on the oral administration group after 0.5, 1, 2, 4, 8, 12, 24 hours from the administration, and plasma was recovered using centrifugation. In the recovered plasma, the drug concentration in the plasma was measured using UHPLC-MS/MS method.

CYP3A4 = CYP3A4 (Homo sapiens, UniProt P08684); details: 2 days, 10 μM
Sequence of CYP3A4 (P08684 whole entry): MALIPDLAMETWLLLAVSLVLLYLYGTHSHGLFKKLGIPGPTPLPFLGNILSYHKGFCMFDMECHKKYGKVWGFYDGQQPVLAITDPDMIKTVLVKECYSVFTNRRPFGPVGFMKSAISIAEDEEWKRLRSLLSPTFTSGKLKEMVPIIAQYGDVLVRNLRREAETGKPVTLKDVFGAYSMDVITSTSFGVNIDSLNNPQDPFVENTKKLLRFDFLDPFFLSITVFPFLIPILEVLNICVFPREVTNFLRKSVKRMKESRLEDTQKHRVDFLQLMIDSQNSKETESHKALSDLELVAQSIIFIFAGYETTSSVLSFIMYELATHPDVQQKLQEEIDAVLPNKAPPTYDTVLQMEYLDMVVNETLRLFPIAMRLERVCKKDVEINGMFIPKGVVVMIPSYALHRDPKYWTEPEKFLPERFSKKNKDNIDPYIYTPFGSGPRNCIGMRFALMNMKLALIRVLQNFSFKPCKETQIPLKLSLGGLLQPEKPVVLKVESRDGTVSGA
Experimental: Live human hepatocyte cell lines (Corning, Cat No. 454551) were collected using a plating medium, seeded on a 24-well plate so that a cell density thereof was 0.4×10^6 cells/well, and cultured for 2 to 4 hours. After replacing the plating medium with a hepatocyte culture medium, the hepatocytes were cultured for 24 hours. After culturing for 24 hours, hepatocytes were treated with Compound 6 at 1, 5, 25 µM. The medium containing the compound was changed every 24 hours for 2 days. The cultured cells were recovered to prepare mRNA samples. mRNA was extracted from the recovered cells by a phenol-chloroform sedimentation method using TRIZOL reagent (Invitrogen, Cat No. 15596018). From the isolated RNA, cDNA was synthesized by reverse transcription, followed by measuring drug metabolizing enzymes CYP1A2, CYP2C9, CYP2C19, CYP2B6, and CYP3A4 through real-time PCR analysis using the Quant Studio™ 7 Flex Real-Time PCR System (Applied Biosystems, CA). Relative values of the enzyme expression levels were compared by the ΔΔct method using GAPDH as a control enzyme. Herein, one (1) fold was set using the control. Results are expressed as % of control compared to control sample.

[4] = 10 mg/kg oral daily, 15th day, compared to solvent control
[5] = 10 mg/kg oral, compared to Comparative Example 1
[6] = rat, plasma, Intravenous (IV), 1 mg/kg
[7] = rat, plasma, Oral (PO), 10 mg/kg
[8] = rat, plasma, Oral (PO), 50 mg/kg
[9] = Oral (PO), 10 mg/kg (reference dose, dose ratio 1)
[10] = Oral (PO), 50 mg/kg relative to 10 mg/kg (dose ratio 5)
[11] = 10 mg/kg vs Comparative Example 1 at 10 mg/kg
[12] = 50 mg/kg vs Comparative Example 1 at 100 mg/kg

O=C(Cc1c[nH]c2ccc(Cl)cc12)Nc1nc2ccc(N3CCOCC3)cc2s1 [Compound 6, 2-(5-chloro-1H-indol-3-yl)-N-(6-morpholinobenzo[d]thiazol-2-yl)acetamide]
Foxp3 expression level in colon lesions [1, 4]: significantly increased | IL-1β expression level in colon lesions [1, 4]: significantly reduced | IL-6 expression level in colon lesions [1, 4]: significantly reduced | IL-10 expression level in colon lesions [1, 4]: significantly increased | IL-17A expression level in colon lesions [1, 4]: significantly reduced | Muc2 expression level in colon lesions [1, 4]: significantly increased | Reg3b expression level in colon lesions [1, 4]: significantly increased | S100a8 expression level in colon lesions [1, 4]: significantly reduced | S100a9 expression level in colon lesions [1, 4]: significantly reduced | TNF-α expression level in colon lesions [1, 4]: significantly reduced | IL-6 mRNA expression level in colon tissues [1, 5]: significantly decreased | S100a9 mRNA expression level in colon tissues [1, 5]: significantly decreased | body weight ([2]; after 70 days): increase in the body weight similar to that of normal mice | number of tumors ([2]; vs control): significantly smaller | size of tumors ([2]; vs control): significantly smaller | AUC(0-t) [3, 6]: 1160 ng·h/mL | C0 [3, 6]: 1420 ng/mL | clearance [3, 6]: 14.4 mL/min/kg | half-life [3, 6]: 62.4 min | Vd ([3]; rat, plasma, Intravenous (IV), 1 mg/kg, read-out: Vdss): 0.924 L/kg | AUC(0-t) [3, 7]: 4350 ng·h/mL | Cmax [3, 7]: 742 ng/mL | Tmax [3, 7]: 2 h | half-life [3, 7]: 120 min | bioavailability [3, 7]: 37.3% | AUC(0-t) [3, 8]: 43100 ng·h/mL | Cmax [3, 8]: 4590 ng/mL | Tmax [3, 8]: 4 h | half-life [3, 8]: 230 min | bioavailability [3, 8]: 73.9% | AUClast Ratio [3, 9]: 1.0 | Cmax ratio [3, 9]: 1.0 | AUClast Ratio [3, 10]: 9.9 | Cmax ratio [3, 10]: 6.2 | increase of AUClast compared to Comparative Example 1 [3, 11]: 5.9 times | increase of Cmax compared to Comparative Example 1 [3, 11]: 11.9 times | increase of AUClast compared to Comparative Example 1 [3, 12]: 66.8 times | increase of Cmax compared to Comparative Example 1 [3, 12]: 30.2 times | CYP3A4 activity (CYP3A4): 85.7 % of Control Activity
